These results are taken from US12264173B2 (GILEAD SCIENCES, INC., priority 2020, dated 2025).

Like-named read-outs stand apart in the source and are kept apart here.

In general, EC50 refers to the concentration at which the effect is half-maximal.

Format in all cases: cell-based
The test system of test [1] is HRV16. In words: HRV16 HeLa EC50 (cytopathic effect in H1-HeLa cells). As to conditions: read-out: HRV16 HeLa EC50. In outline: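 H1-HeLa cells seeded one day before, given 3-fold serial compound dilutions in triplicate just prior to infection with pre-titrated virus. Incubated 96 h at 33 °C/5% CO2; protection from cytopathic effect read as viability by CellTiter-Glo luminescence, normalised to infected untreated (0%) and uninfected (100%) controls.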

Test [2] relates to DENV2 replicon. In words: DENV-2 Huh-7 Rep EC50 (replicon luminescence). A digest of the protocol:
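Huh-7 cells carrying a DENV2 replicon, 5,000 cells/well, were incubated with dosed compounds for 48 h at 37° C. EnduRen live-cell substrate was added 1.5 h before luminescence reading. EC50 came from dose-response against DMSO-only wells.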

The test system of test [3] is RSV strain A2. Nature of the test: microbe, parasite or virus in culture. The note with it: read-out: RSV HEp-2 EC50. In outline: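 Cytopathic-effect protection assay: HEp-2 cells (50,000/mL) infected with pre-titered RSV A2 onto 3-fold serial compound dilutions, incubated 4 days at 37° C. Cell viability read by CellTiter-Glo luminescence; percent inhibition derived against 0% and 100% virus-inhibition controls.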

The test system of test [4] is RSV A2. Nature of the test: RSV NHBE EC50 (RSV A2 antiviral assay in NHBE cells). As to conditions: read-out: RSV NHBE EC50. In outline: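 Antiviral activity against RSV A2 was determined in NHBE cells used within 6 passages, with cell viability quantified by CellTiter-Glo after a 4-day infection.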
[5] abbreviates: 96 h, Table 3, H1-HeLa cells, 96 h.
[6] abbreviates: Dengue virus, DENV2, Huh-7, 48 h, read-out: DENV-2 REP Huh7 EC50.
[7] abbreviates: human respiratory syncytial virus, HEp-2, 96 h, Table 3, HEp-2 cells, RSV A2, 4 days.
Setting [8] is: human respiratory syncytial virus, NHBE, 96 h, Table 3, NHBE cells, RSV A2, 4 days.
[9] abbreviates: Dengue virus, DENV2, Huh-7, 48 h, read-out: DENV-2 REP Huh7 EC50, Table 3, Huh-7 DENV2 replicon cells, 48 hours.
Where [10] appears, read: Table 3, Huh-7 DENV2 replicon cells, 48 hours, read-out: DENV-2 REP Huh7 EC50.
The mark [11] stands for this setting: Table 3, HEp-2 cells, RSV A2, 4 days.
[12] abbreviates: Table 3, NHBE cells, RSV A2, 4 days.

In the case of `CCC(=O)O[C@H]1[C@H](c2ccc3c(N)ncnn23)O[C@](C#N)(COP(=O)(N[C@@H](C)C(=O)OC[C@H]2CC[C@H](N)CC2)Oc2ccccc2)[C@H]1OC(=O)CC` (stereo partly drawn) [Example 159, (2R,3S,4S,5S)-2-((((((S)-1-(((1r,4S)-4-aminocyclohexyl)methoxy)-1-oxopropan-2-yl)amino)(phenoxy)phosphoryl)oxy)methyl)-5-(4-aminopyrrolo[2,1-f][1,2,4]triazin-7-yl)-2-cyanotetrahydrofuran-3,4-diyl dipropionate], the EC50 in test [1] (setting [5]) was 33.1 µM; in test [2] (setting [6]) it was > 50 µM; in test [3] (setting [7]), 7.99 µM; in test [4] (setting [8]), 1.55 µM.
For `COCCOCC(=O)O[C@H]1[C@H](c2ccc3c(N)ncnn23)O[C@](C#N)(CO[P@@](=O)(N[C@@H](C)C(=O)OC(C)C)Oc2ccccc2)[C@H]1OC(=O)COCCOC` [Example 161, (2R,3S,4S,5S)-5-(4-aminopyrrolo[2,1-f][1,2,4]triazin-7-yl)-2-cyano-2-((((S)-(((S)-1-isopropoxy-1-oxopropan-2-yl)amino)(phenoxy)phosphoryl)oxy)methyl) tetrahydrofuran-3,4-diyl bis(2-(2-methoxyethoxy)acetate)] the same measures were 1.23 µM, 22.5 µM, 0.151 µM and 1.16 µM.
For `COC(=O)[C@H](C)N[P@](=O)(OC[C@@]1(C#N)O[C@@H](c2ccc3c(N)ncnn23)[C@H](OC(=O)[C@@H](C)OC)[C@@H]1OC(=O)[C@@H](C)OC)Oc1ccccc1` [Example 166, (2R,3S,4S,5S)-5-(4-aminopyrrolo[2,1-f][1,2,4]triazin-7-yl)-2-cyano-2-((((S)-(((S)-1-methoxy-1-oxopropan-2-Yl)amino)(phenoxy)phosphoryl)oxy)methyl) tetrahydrofuran-3,4-diyl (2R,2′R)-bis(2-methoxypropanoate)] the same measures were 1.66 µM, 21.7 µM, 0.157 µM and 0.112 µM.
For `CCC(=O)Nc1ncnn2c([C@@H]3O[C@](C#N)(COP(=O)(N[C@@H](C)C(=O)OC4CCOCC4)Oc4ccccc4)[C@@H](OC(=O)CC)[C@H]3OC(=O)CC)ccc12` (stereo partly drawn) [Example 170, (2R,3S,4S,5S)-2-Cyano-2-((((((S)-1-oxo-1-((tetrahydro-2H-pyran-4-yl)oxy)propan-2-yl)amino)(phenoxy)phosphoryl)oxy)methyl)-5-(4-propionamidopyrrolo[2,1-f][1,2,4]triazin-7-yl)tetrahydrofuran-3,4-diyl dipropionate] the same measures were 0.863 µM, 15.9 µM, 0.267 µM and 0.08 µM.
In the case of `CCC(=O)O[C@H]1[C@H](c2ccc3c(N)ncnn23)O[C@](C#N)(CO[P@@](=O)(N[C@@H](C)C(=O)OCC(CC)CC)Oc2ccccc2)[C@H]1OC(=O)CC` [Example 180, (2R,3S,4S,5S)-5-(4-aminopyrrolo[2,1-f][1,2,4]triazin-7-yl)-2-cyano-2-((((S)-(((S)-1-(2-ethylbutoxy)-1-oxopropan-2-yl)amino)(phenoxy)phosphoryl)oxy)methyl) tetrahydrofuran-3,4-diyl dipropionate], the EC50 came to 0.178 µM in test [1] (setting [5]), 8.31 µM in test [2] (setting [6]), 0.062 µM in test [3] (setting [7]) and 0.031 µM in test [4] (setting [8]).
On to `CC(C)C(=O)O[C@H]1[C@H](c2ccc3c(N)ncnn23)O[C@](C#N)(COP(=O)(N[C@@H](C)C(=O)OC2COC2)Oc2ccccc2)[C@H]1OC(=O)C(C)C` (stereo partly drawn) [Example 184, (2R,3S,4S,5S)-5-(4-aminopyrrolo[2,1-f][1,2,4]triazin-7-yl)-2-cyano-2-((((((S)-1-(oxetan-3-yloxy)-1-oxopropan-2-yl)amino)(phenoxy)phosphoryl)oxy)methyl) tetrahydrofuran-3,4-diyl bis(2-methylpropanoate)], for which the EC50 was 0.057 µM in test [1] (setting [5]); 0.057 µM in test [1] (HeLa, Table 5 comparative activity, 2',3'-OH vs -OC(O)iPr); 5.96 µM in test [2] (setting [6]); 0.079 µM in test [3] (setting [7]); 0.079 µM in test [3] (human respiratory syncytial virus, HEp-2, Table 5 comparative activity, 2',3'-OH vs -OC(O)iPr); 0.013 µM in test [4] (setting [8]). Also, the EC50 in test [4] (human respiratory syncytial virus, NHBE, Table 5 comparative activity, 2',3'-OH vs -OC(O)iPr) was found to be 0.013 µM.
Take `CCCCOC(=O)[C@H](C)NP(=O)(N[C@@H](C)C(=O)OCCCC)OC[C@@]1(C#N)O[C@@H](c2ccc3c(N)ncnn23)[C@H](OC(=O)CC)[C@@H]1OC(=O)CC` [Example 193]: the EC50 in test [1] (setting [5]) was determined as 1.62 µM; in test [2] (setting [9]), 30 µM; in test [3] (setting [7]), 0.61 µM; in test [4] (setting [8]) it was 0.125 µM.
In the case of `CCCCC(=O)O[C@H]1[C@H](c2ccc3c(N)ncnn23)O[C@](C#N)(COP(=O)(N[C@@H](C)C(=O)OCC)N[C@@H](C)C(=O)OCC)[C@H]1OC(=O)CCCC` [Example 194, (2R,3S,4S,5S)-5-(4-Aminopyrrolo[2,1-f][1,2,4]triazin-7-yl)-2-(((bis(((S)-1-ethoxy-1-oxopropan-2-yl)amino)phosphoryl)oxy)methyl)-2-cyanotetrahydrofuran-3,4-diyl dipentanoate], the EC50 came to 2.09 µM in test [1] (setting [5]), 30.9 µM in test [2] (setting [9]), 0.391 µM in test [3] (setting [7]) and 0.529 µM in test [4] (setting [8]).
Regarding `CCC(=O)O[C@H]1[C@H](c2ccc3c(N)ncnn23)O[C@](C#N)(COP(=O)(N[C@@H](C)C(=O)OC2CCC2)Oc2ccccc2)[C@H]1OC(=O)CC` (stereo partly drawn) [Example 195, (2R,3S,4S,5S)-5-(4-aminopyrrolo[2,1-f][1,2,4]triazin-7-yl)-2-cyano-2-((((((S)-1-cyclobutoxy-1-oxopropan-2-yl)amino)(phenoxy)phosphoryl)oxy)methyl) tetrahydrofuran-3,4-diyl dipropionate], the EC50 in test [1] (Table 3, H1-HeLa cells, 96 h) worked out at 0.126 µM; in test [2] (setting [10]) it was 6.45 µM; in test [3] (setting [11]), 0.023 µM; in test [4] (setting [12]) it was 0.059 µM.
Turning to `CCC(=O)O[C@H]1[C@H](c2ccc3c(N)ncnn23)O[C@](C#N)(CO[P@](=O)(N[C@@H](C)C(=O)OC2CCC2)Oc2ccccc2)[C@H]1OC(=O)CC` [Example 196, (2R,3S,4S,5S)-5-(4-aminopyrrolo[2,1-f][1,2,4]triazin-7-yl)-2-cyano-2-((((R)-(((S)-1-cyclobutoxy-1-oxopropan-2-yl)amino)(phenoxy)phosphoryl)oxy)methyl) tetrahydrofuran-3,4-diyl dipropionate], the EC50 in test [1] (Table 3, H1-HeLa cells, 96 h) worked out at 0.096 µM; in test [2] (setting [10]), 1.96 µM; in test [3] (setting [11]), 0.042 µM; in test [4] (setting [12]), 0.027 µM.
Taken in the same sequence, the figures for `CC(C)C(=O)O[C@H]1[C@H](c2ccc3c(N)ncnn23)O[C@](C#N)(COP(=O)(N[C@@H](C)C(=O)OC2CCC2)Oc2ccccc2)[C@H]1OC(=O)C(C)C` (stereo partly drawn) [Example 197, (2R,3S,4S,5S)-5-(4-aminopyrrolo[2,1-f][1,2,4]triazin-7-yl)-2-cyano-2-((((((S)-1-cyclobutoxy-1-oxopropan-2-yl)amino)(phenoxy)phosphoryl)oxy)methyl) tetrahydrofuran-3,4-diyl bis(2-methylpropanoate)] were 0.094 µM, 4.46 µM, 0.028 µM and 0.033 µM.
For `CC(=O)O[C@H]1[C@H](c2ccc3c(N)ncnn23)O[C@](C#N)(COP(=O)(N[C@@H](C)C(=O)OC2CCC2)Oc2ccccc2)[C@H]1OC(C)=O` (stereo partly drawn) [Example 198, (2R,3S,4S,5S)-5-(4-aminopyrrolo[2,1-f][1,2,4]triazin-7-yl)-2-cyano-2-((((((S)-1-cyclobutoxy-1-oxopropan-2-yl)amino)(phenoxy)phosphoryl)oxy)methyl) tetrahydrofuran-3,4-diyl diacetate] the same measures were 0.319 µM, 6.62 µM, 0.048 µM and 0.037 µM.
For `CCC(=O)O[C@H]1[C@H](c2ccc3c(N)ncnn23)O[C@](C#N)(COP(=O)(N[C@@H](C)C(=O)OC)N[C@@H](C)C(=O)OC)[C@H]1OC(=O)CC` [Example 199], the EC50 in test [1] (setting [5]) was 19.5 µM; in test [2] (setting [9]), > 50 µM; in test [3] (setting [7]), 4.11 µM; in test [4] (setting [8]) it was 0.235 µM.
